From article PMC3433420 (PLoS ONE, 2012)
Residues, ends and D or L forms follow the SMILES beside them.

Tests used:
PLCG1-C SH2 domain [1] = biological target: T1, PLCG1-C SH2 domain (Homo sapiens, UniProt P19174); assay: biochemical; format: binding; settings: FP, PLCG1-C; mean; NA = no interaction detected
T1 construct: The 6X His-tagged SH2 domain proteins used in the assay, PLCG1-C, SHC4, VAV2; thioredoxin; made in house; host or cells: E. coli BL21(DE3)pLysS
T1 sequence (P19174 668-756 limits assumed): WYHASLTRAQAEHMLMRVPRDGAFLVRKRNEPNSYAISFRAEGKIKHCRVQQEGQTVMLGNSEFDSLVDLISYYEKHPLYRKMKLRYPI

PLCG1-C SH2 domain [2] = biological target: T1, PLCG1-C SH2 domain; assay: Surface plasmon resonance (Biacore 3000); format: binding; settings: SPR, NA = no interaction detected
Protocol: All SPR experiments were performed using Biacore 3000 (GE HealthCare, Piscataway, NJ) instrumentation. 6X His-tagged SH2 domain proteins were immobilized on a nitriloacetic acid (NTA) sensor chip (GE HealthCare, Piscataway, NJ) charged with Ni^2+ ions. Dye-free ErbB family peptides were applied to the sensor chip in a single flow cell in solution phase (while the other flow cell was used as a reference control) and binding events were measured under equilibrium conditions. FP false positive [drawing 7] (FPR), false discovery [drawing 8] (FDR), and false negative [drawing 9] (FNR) rates were calculated by defining true positives (TP) as interactions detected by both FP and SPR, true negatives (TN) as interactions detected by neither FP nor SPR; false positives as interactions identified by FP but not validated by SPR; and false negatives (FN) as interactions missed by FP but detected by SPR. Additional details for all methods are provided in the Supplementary Methods.
A randomly selected set of 12 recombinant SH2 domain proteins and unlabeled (rhodamine dye free) peptides (9 ErbB, 2 GAB1, 2 KIT, 2 MET) were generated for the surface plasmon resonance (SPR) validation study. The 6X His-tagged SH2 domain proteins used in the assay, PLCG1-C, SHC4, VAV2, TNS3, PIK3R3-C, SYK-C, PIK3R1-N, SUPT6H, CRKL, TEC, SHB, and SHC3 were produced and purified as previously described (see “SH2 and PTB domain proteins” section and Jones et al., 2006). Fresh protein stocks were generated so as to avoid bias incurred from proteins previously used in the FP assays. 13-mer peptides corresponding to ErbB1 pY801, ErbB1 pY900, ErbB1 pY978, ErbB1 pY1069, ErbB2 pY685, ErbB pY803, ErbB3 pY912, ErbB4 pY833, ErbB4 pY906, GAB1 pY183, GAB1 pY472, KIT pY570, KIT pY936, MET pY1093 and MET pY1313, were synthesized successfully for the assay using previously described approaches (see “FP competitor peptide synthesis” section). For SPR detection via the Biacore 3000 (GE HealthCare, Piscataway, NJ), His-tagged SH2 domains were immobilized on Biacore NTA sensor chips (GE HealthCare, Piscataway, NJ) pre-charged with Ni^2+ ions in one flow cell while the second served as a negative control reference cell. Peptides were introduced in solution phase to both cells and relative response units (RUs) were recorded from output sensograms. Nine concentrations of peptide and a buffer control, in duplicate, were used to determine KDs using the equilibrium method (best-fit simultaneous modeling for peptide association and disassociation curves).

PIK3R1-N SH2 domain = biological target: T2, PIK3R1-N SH2 domain (Homo sapiens, UniProt P27986); assay: biochemical; format: binding; settings: protein PIK3R1-N; FP, high-confidence ErbB interactions; mean of replicate hits
T2 construct: thioredoxin; made in house; host or cells: E. coli BL21(DE3)pLysS
T2 sequence (P27986 333-428 limits assumed): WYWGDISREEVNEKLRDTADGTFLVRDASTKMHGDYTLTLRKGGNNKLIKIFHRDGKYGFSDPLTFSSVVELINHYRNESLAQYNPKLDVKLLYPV

PIK3R1-C SH2 domain = biological target: T3, PIK3R1-C SH2 domain (Homo sapiens, UniProt P27986); assay: FP saturation binding assay; settings: protein PIK3R1-C, high-confidence ErbB interactions, mean of replicate hits
T3 construct: 6X His; thioredoxin; made in house; host or cells: E. coli BL21(DE3)pLysS
T3 sequence (P27986 624-718 limits assumed): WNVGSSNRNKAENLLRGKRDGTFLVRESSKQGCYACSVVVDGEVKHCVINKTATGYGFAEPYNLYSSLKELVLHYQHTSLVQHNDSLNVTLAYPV
Method in brief: (§1)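 KD values come from least-squares fits of fluorescence polarization (ex 530, em 555 nm), corrected for thioredoxin nonspecific binding and plate baseline, with outliers pruned. Fixed 10 nM labeled peptide met a 0.002–10 µM protein series for 20 min at room temperature in HEPES/KCl/Tween/DTT buffer, pH 7.8.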

[3] = biological target: T4, PIK3R1-NC tandem SH2 domains (Homo sapiens, UniProt P27986); assay: FP saturation binding assay; settings: protein PIK3R1-NC; FP, high-confidence ErbB interactions; mean of replicate hits
T4 construct: the tandem protein was included in our analysis with all internal amino acids linking the domains; 6X His; thioredoxin; made in house; host or cells: E. coli BL21(DE3)pLysS
T4 sequence (P27986 333-718 limits assumed): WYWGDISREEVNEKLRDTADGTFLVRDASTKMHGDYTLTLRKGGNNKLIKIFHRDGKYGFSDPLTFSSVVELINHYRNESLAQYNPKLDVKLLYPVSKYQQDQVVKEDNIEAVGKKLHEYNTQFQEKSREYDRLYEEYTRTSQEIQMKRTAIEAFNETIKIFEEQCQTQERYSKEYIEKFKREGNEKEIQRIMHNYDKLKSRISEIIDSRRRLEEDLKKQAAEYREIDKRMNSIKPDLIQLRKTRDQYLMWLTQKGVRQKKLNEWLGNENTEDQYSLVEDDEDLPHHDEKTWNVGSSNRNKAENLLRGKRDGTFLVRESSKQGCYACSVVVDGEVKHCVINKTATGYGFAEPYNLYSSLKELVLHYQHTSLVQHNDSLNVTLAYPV
Method in brief: as §1

[4] = biological target: T5, PIK3R3-NC tandem SH2 domains (Homo sapiens, UniProt Q92569); assay: FP saturation binding assay; settings: protein PIK3R3-NC; FP, high-confidence ErbB interactions; mean of replicate hits
T5 construct: the tandem protein was included in our analysis with all internal amino acids linking the domains; 6X His; thioredoxin; made in house; host or cells: E. coli BL21(DE3)pLysS
Method in brief: as §1

PIK3R2-N SH2 domain = PIK3R2-N SH2 domain (Homo sapiens, UniProt O00459); assay: FP saturation binding assay
Sequence of PIK3R2-N SH2 domain (O00459 330-425 limits assumed): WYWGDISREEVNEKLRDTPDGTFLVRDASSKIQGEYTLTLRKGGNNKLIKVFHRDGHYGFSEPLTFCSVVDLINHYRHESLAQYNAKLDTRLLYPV

[5] = tested on: 93 human SH2 domains and 2 phosphotyrosine binding (PTB) domains; assay: FP saturation binding assay, whole domain panel (protein named per line or not at all)
Protocol: (See Figure 1A) Rhodamine-labeled peptides were dissolved in assay buffer (20 mM HEPES, 100 mM KCl, 0.1% Tween-20, 5 mM DTT, pH 7.8), diluted to a concentration of 20 nM, and plated into black 384-well plates (Corning, Corning, NY) at 5 µL/well using a Perkin Elmer EP3 pipetting workstation (V&P Scientific, Inc., San Diego, CA). SH2, PTB, and thioredoxin control proteins were plated into the first column of 2 mL 96-well plates (Corning) at a concentration of 20 µM and serially diluted 1∶2 into freezing buffer (300 mM NaCl, 50 mM Na2PO4, pH 8, 20% glycerol v/v) eleven times using a Tecan Freedom EVO 100 workstation (Tecan, Männedorf, Switzerland). For the interaction assay, 5 µL of each of the twelve protein concentrations was added to the peptide-containing 384-well plates via the EP3 resulting in a protein dilution range of 0.002–10 µM and a final volume of 10 µL; peptide concentration was fixed at 10 nM. Peptide/protein samples were incubated for 20 minutes at room temperature in the dark and fluorescence polarization (FP) was measured in an Analyst GT multimode reader (Molecular Devices, Sunnyvale, CA) with excitation and emission wavelengths of 530 nm and 555 nm, respectively. Experimental values were output as millipolarization (mP) units and imported into MATLAB (The MathWorks, Inc., Natick, MA) in which equation (1) was used to determine dissociation constants (KDs) for each protein/peptide pairing by least squares nonlinear regression. [drawing 1] (1)
To scale up the number of interaction measurements while minimizing variation introduced by human intervention, we utilized an automated robotic platform (Figure 1A; see experimental procedures and Supplementary Methods) to transfer, incubate, and measure the fluorescence polarization (FP) induced from interactions of a titration series of SH2 domains with synthetic rhodamine-labeled ErbB phosphopeptides. Experimental values were output as millipolarization (mP) units and equation (1) was used to fit apparent midpoint dissociation constants (KDs) for each protein/peptide pair using non-linear regression (see experimental procedures).
For this interaction analysis, we synthesized and queried the interaction of phosphopeptides corresponding to 89 of 92 ErbB family intracellular tyrosines with 93 SH2 domains. Because nine peptide sequences share 100% identity between the receptors in the 4 to 7 amino acids C-terminal to the phosphorylated tyrosine, our peptide set consisted of 81 phosphopeptides corresponding to the 89 unique tyrosine containing sequences (Table S2). This peptide set represents a 50% increase over the three PM studies performed to date. We were therefore able to obtain a more systematic and unbiased view of the relative SH2 domain recruitment potential of each receptor. Although most ErbB receptor auto-phosphorylation sites have been detected frequently by mass spectrometry because of their high relative modification stoichiometry, non-auto-phosphorylation sites have been reported less frequently in the literature (Table S3). We reasoned that many physiologically relevant and uncharacterized ErbB tyrosines of low phosphorylation stoichiometry may exist and that our comprehensive interaction analysis might implicate their importance in mediating physiological interactions. We tested the majority of interactions (7099/8160 (87.0%); Figure S3) three or more times and reported standard error for all interactions that were detected in at least three FP runs (Table S4). […] Analysis of this polarization data may be useful for inferring how SH2 proteins bind to different peptide sequences. Larger proteins and proteins binding closer to the N-terminal rhodamine tag of a given peptide would be expected to induce higher maximal polarization (the calculated maximal polarization value at infinite protein concentration) than proteins binding farther from the tag. In addition to phosphopeptides, we queried a representative set of 27 non-phosphopeptides against the entire domain set. […]

TENC1 SH2 domain = assay: FP saturation binding assay; settings: Tensin family SH2 domains
TNS1 SH2 domain = biological target: T6, TNS1 SH2 domain (Homo sapiens, UniProt Q9HBL0); assay: FP saturation binding assay; settings: Tensin family SH2 domains
T6 sequence (Q9HBL0 1567-1676 limits assumed): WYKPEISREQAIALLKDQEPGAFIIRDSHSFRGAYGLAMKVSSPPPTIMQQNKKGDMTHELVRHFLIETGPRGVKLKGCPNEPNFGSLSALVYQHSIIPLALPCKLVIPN

TNS3 SH2 domain = biological target: T7, TNS3 SH2 domain (Homo sapiens, UniProt Q68CZ2); assay: FP saturation binding assay; settings: FP saturation assay; Tensin family SH2 domains
T7 sequence (Q68CZ2 1172-1282 limits assumed): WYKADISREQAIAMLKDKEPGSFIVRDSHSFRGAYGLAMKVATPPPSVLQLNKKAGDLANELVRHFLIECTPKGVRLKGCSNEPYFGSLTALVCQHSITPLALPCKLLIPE

SH2 and PTB domains = settings: protein SYK-N; ref Kaushansky et al. Mol Biosys 2008; cited from earlier work
Source text: Supplement pone.0044471.s022.xlsx, sheet "Most recent PM interactions" | column: Kd || Supplement pone.0044471.s022.xlsx, sheet "All original PM interactions" | column: Kd

| Compound | Kd (PLCG1-C SH2 domain [1]) | Kd (PLCG1-C SH2 domain [2]) | affinity of recruitment of TENC1 (TENC1 SH2 domain) | affinity of recruitment of TNS1 (TNS1 SH2 domain) | affinity of recruitment of TNS3 (TNS3 SH2 domain) | further results |
| --- | --- | --- | --- | --- | --- | --- |
| CC[C@H](C)[C@H](NC(=O)[C@@H](NC(=O)[C@H](CC(C)C)NC(=O)[C@H](Cc1ccc(OP(=O)(O)O)cc1)NC(=O)[C@H](CCCNC(=N)N)NC(=O)[C@H](CCC(N)=O)NC(=O)[C@@H]1CCCN1C(=O)[C@@H](N)CC(=O)O)C(C)C)C(=O)N[C@@H](CCC(N)=O)C(=O)NCC(=O)N[C@@H](CC(=O)O)C(=O)N[C@@H](CCC(=O)O)C(=O)N[C@@H](CC(=O)O)C(=O)O [ErbB1 978] (HELM PEPTIDE1{D.P.Q.R.[O=C([C@H](Cc1ccc(OP(=O)(O)O)cc1)N[*:1])[*:2]].L.V.I.Q.G.D.E.D}$$$$V2.0) | 1370 nM | 430 nM | – | – | – | – |
| CSCC[C@H](NC(=O)CNC(=O)[C@@H](N)CCCCN)C(=O)N[C@@H](CCSC)C(=O)N[C@@H](Cc1ccc(OP(=O)(O)O)cc1)C(=O)N[C@@H](CC(C)C)C(=O)N[C@@H](CCC(=O)O)C(=O)N[C@@H](CCC(=O)O)C(=O)N[C@@H](CCCNC(=N)N)C(=O)N[C@@H](CCCNC(=N)N)C(=O)N[C@@H](CC(C)C)C(=O)N[C@H](C(=O)N[C@@H](CC(=O)O)C(=O)O)C(C)C [ErbB4 833] (HELM PEPTIDE1{K.G.M.M.[O=C([C@H](Cc1ccc(OP(=O)(O)O)cc1)N[*:1])[*:2]].L.E.E.R.R.L.V.D}$$$$V2.0) | 4730 nM | 3460 nM | – | – | – | – |
| CSCC[C@H](NC(=O)[C@@H]1CCCN1C(=O)[C@@H](NC(=O)[C@H](Cc1ccc(OP(=O)(O)O)cc1)NC(=O)[C@H](C)NC(=O)[C@@H]1CCCN1C(=O)[C@@H]1CCCN1C(=O)[C@@H]1CCCN1)[C@@H](C)O)C(=O)N[C@@H](CO)C(=O)NCC(=O)N[C@@H](CC(N)=O)C(=O)N[C@@H](CCC(N)=O)C(=O)N[C@@H](CC(=O)O)C(=O)O [ErbB4 1056 13-mer] (HELM PEPTIDE1{P.P.P.A.[O=C([C@H](Cc1ccc(OP(=O)(O)O)cc1)N[*:1])[*:2]].T.P.M.S.G.N.Q.D}$$$$V2.0) | – | – | – | – | – | Kd (PIK3R1-N SH2 domain): 2570 nM; Kd (PIK3R1-C SH2 domain): 160 nM; Kd [3]: 210 nM; Kd [4]: 230 nM; Kd (PIK3R2-N SH2 domain): 2960 nM |
| AKGMpYYLEEHGMd [ErbB3 pY823] | – | – | relatively high affinity | relatively high affinity | relatively high affinity | interaction with the SH2/PTB domain panel ([5]; KD <= 20 µM counted as interaction): reproducibly interacted at high affinity with many SH2 domains; SH2 domains found to interact ([5]; high-confidence interactions (Table S11, Figure S14)): interacted with Src kinase and tensin family SH2 domains |
| CLLDpYVREHKDNd [ErbB1 pY801] | – | – | relatively high affinity | relatively high affinity | relatively high affinity | Kd (SH2 and PTB domains): 560 nM |
| LDEApYVMASVDNd [ErbB1 pY764] | – | – | relatively high affinity | relatively high affinity | relatively high affinity | – |
